Assay results: US9949976B2, “Kinase inhibitor and use thereof” (Sihuan Pharmaceutical Holdings Group Ltd., priority 2013, dated 2018)

Key:
[1] = molecular target: CDK6/D3 (Homo sapiens, UniProt Q00534); assay: In vitro enzyme-inhibiting activity, Caliper Mobility Shift method; format: biochemical; details: read-out: CDK enzyme-inhibiting activity IC50 CDK6/D3
Protocol: Measurement of activity for inhibiting CDK4/6 kinase by Caliper Mobility Shift method.
50 mL stock solution containing 1000 mM HEPES (pH 7.5), and 50 μL stock solution containing 30% Brij-35, were added to 949.95 mL ultra pure water, and the resultant mixture was mixed homogeneously.
25 mL stock solution containing 4% Coating Reagent #3 (provided with the 12-sipper chip used in Caliper device), 50 mL stock solution containing 1000 mM HEPES (pH 7.5), 50 mL stock solution containing 0.5 M EDTA, and 0.25 mL stock solution containing 30% Brij-35, were added to 374.75 mL ultra pure water, and the resultant mixture was mixed homogeneously.
18 μL CDK6/D3 enzyme solution, and 14 μL stock solution containing 1M DTT were added to 2768 μL 1-fold CDK6 kinase buffer, and the resultant mixture was mixed homogeneously.
23 μL stock solution containing 100 mM ATP, 75 μL stock solution containing 1M MgCl2, and 75 μL FAM-tagged polypeptide 8, were added to 2827 μL 1-fold CDK6 kinase buffer, and the resultant mixture was mixed homogeneously.
DMSO solution containing 10 mM test compound was diluted with DMSO to a solution containing 50 μM test compound (which was used as a stock solution).
1) 5 μL 5-fold test compound solution and 10 μL 2.5-fold kinase solution were added to the corresponding wells in a 384-well plate, and incubated at room temperature for 10 min.
2) To the corresponding wells, 10 μL 2.5-fold polypeptide solution was added to start the enzymatic reaction, and incubation was performed at 28° C. for 5 h.
To the corresponding wells, 25 μL stop solution was added to stop the reaction.
The data was read by Caliper device, the inhibition rate was calculated by the following formula, and curve fitting was carried out by GraphPad5.0 software to get IC50 value. Inhibition rate=(maximal value−sample value)/(maximal value−minimal value)×100, wherein, maximal value: positive control without addition of test compound; minimal value: negative control without addition of enzyme.

[2] = tested on: HGC-27 gastric cancer cell; assay: BrdU cell proliferation assay (Cell Signaling kit); format: cell-based; details: Homo sapiens, HGC-27, 72 h; read-out: In vitro cell-inhibiting activity IC50 HGC-27
Protocol: (§1) Experimental method: cell proliferation assay was carried out by BrdU method (BrdU cell proliferation assay kit, Cell Signaling Technology Company).
(§2) Preparation of gradient dilution solutions of test compound: the stock solution containing 10 mM test compound was subjected to 4-fold stepwise dilution with DMSO to prepare solutions containing 2.5 mM, 625 μM, 156 μM, 39 μM, 9.8 μM, and 2.5 μM test compound, respectively. 2 μL DMSO-diluted compound was added to 198 μL culture medium containing 10% FBS to prepare […] test compound, wherein the maximum concentration of the test compound was 100 μM, the concentration of DMSO was 1%, and there were 7 concentration gradients.
HGC-27 medium: DMEM+10% FBS
(1) Cells grown to 80% confluence (in exponential growth phase) were digested with pancreatin, and centrifuged to collect the cells. Cells were re-suspended in FBS-free culture medium, counted, and seeded to a 96-well plate at 4000 cells/well/81 μL. The plates were placed in a cell incubator at 37° C.
(2) After 24 h culture, 9 μL FBS was added to each well to reach a final FBS concentration of 10%. […]
(9) To each well, 100 μL stop solution was added, and OD value at 450 nm was measured by ELISA instrument 3. […]

[3] = tested on: MDA-MB-435S human melanoma cell; assay: BrdU cell proliferation assay (Cell Signaling kit); format: cell-based; details: 72 h, read-out: In vitro cell-inhibiting activity IC50 MDA-MB-435S
Protocol: as §1, §2
MDA-MB-435S medium: L-15+10% FBS+0.01 mg/mL insulin
(1) Cells grown to 80% confluence (in exponential growth phase) were digested with pancreatin, and centrifuged to collect the cells. MDA-MB-435S and U87MG cells were re-suspended in FBS-free culture medium, counted, and seeded to a 96-well plate; MDA-MB-435S cells were seeded at 3000 cells/well/81 μL; U87MG cells were seeded at 4000 cells/well/81 MCF-7 cells were resuspended in culture medium containing 1% FBS, and counted and seeded to a 96-well plate, at 4000 cell/well/82 μL. The plates were placed in a cell incubator at 37° C. […]
(9) To each well, stop solution (100 μL) was added, and OD value at 450 nm was measured by ELISA instrument […]

CDK6/D3, sequence (Q00534 whole entry): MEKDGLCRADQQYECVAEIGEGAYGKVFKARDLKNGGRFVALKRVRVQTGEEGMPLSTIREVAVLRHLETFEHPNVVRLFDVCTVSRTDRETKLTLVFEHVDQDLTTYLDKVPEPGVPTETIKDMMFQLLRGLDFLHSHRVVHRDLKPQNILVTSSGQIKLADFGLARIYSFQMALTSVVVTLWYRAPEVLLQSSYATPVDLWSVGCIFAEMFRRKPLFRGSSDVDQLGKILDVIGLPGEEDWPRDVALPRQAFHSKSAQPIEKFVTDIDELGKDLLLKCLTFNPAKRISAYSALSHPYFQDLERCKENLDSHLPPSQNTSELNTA
CDK6/D3, sequence (P30281 whole entry partner): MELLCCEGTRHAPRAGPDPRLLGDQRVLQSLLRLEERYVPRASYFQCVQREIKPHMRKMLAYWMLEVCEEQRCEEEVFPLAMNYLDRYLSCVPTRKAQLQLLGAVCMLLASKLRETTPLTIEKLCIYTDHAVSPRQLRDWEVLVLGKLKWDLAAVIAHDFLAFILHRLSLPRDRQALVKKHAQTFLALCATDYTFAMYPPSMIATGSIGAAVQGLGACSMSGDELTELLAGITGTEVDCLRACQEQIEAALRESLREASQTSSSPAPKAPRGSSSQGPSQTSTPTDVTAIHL

## CCN1CCN(Cc2cnc(Nc3cc(-c4cc(F)c5nc(C)n(C(C)C)c5c4)c(F)cn3)nc2)CC1 [Compound 1, 5-((4-ethylpiperazin-1-yl)methyl)-N-(5-fluoro-4-(4-fluoro-1-isopropyl-2-methyl-1H-benzo[d]imidazol-6-yl)pyridin-2-yl)pyrimidin-2-amine]
[1]
  IC50: 16 nM
[2]
  IC50: 316 nM

## CCN1CCN(Cc2ccc(Nc3ncc(F)c(-c4cc(F)c5nc(C)n(C(C)C)c5c4)n3)nc2)CC1 [LY2835219, reference compound]
[3]
  IC50: 200 nM
